Source: ChEMBL document CHEMBL3244166, “Syntheses and biological activities of basically substituted isoalloxazines” (J Med Chem, 1978)

Assays:
[1] = test system: Rattus norvegicus; test: In vivo inhibition of riboflavin activity in weanling Wistar rat assessed as change in body weight at 2 mg/kg/day administered by stomach tube prior to feeding with riboflavin-deficient diet measured for 28 days (reference value: 3 +/- 1 g); format: functional
[2] = test system: Rattus norvegicus; test: Induction of riboflavin-like activity in weanling Wistar rat assessed as change in body weight at 2 mg/kg/day administered by stomach tube prior to feeding with riboflavin-deficient diet measured for 28 days in presence of 20 ug/day riboflavin (reference value: 3 +/- 1 g); format: functional
[3] = Toxicity in weanling Wistar rat assessed as survival at 2 mg/rat/day administered by stomach tube prior to feeding with riboflavin-deficient diet measured for 28 days relative to control; conditions: in vivo, oral
[4] = test system: Rattus norvegicus; test: Induction of riboflavin-like activity in weanling Wistar rat assessed as change in body weight at 2 mg/kg/day administered by stomach tube prior to feeding with riboflavin-deficient diet measured for 28 days in presence of 40 ug/day riboflavin (reference value: 3 +/- 1 g); format: functional
[5] = test system: Rattus norvegicus; test: Induction of riboflavin-like activity in weanling Wistar rat assessed as change in body weight at 2 mg/kg/day administered by stomach tube prior to feeding with riboflavin-deficient diet measured for 28 days in presence of 60 ug/day riboflavin (reference value: 3 +/- 1 g); format: functional
[6] = test system: Rattus norvegicus; test: In vivo inhibition of riboflavin activity in weanling Wistar rat assessed as decrease in body weight at 2 mg/kg/day administered by stomach tube prior to feeding with riboflavin-deficient diet measured for >= 14 days (reference value: 3 +/- 1 g); format: functional

| Structure (SMILES) | Activity [1] [g] | Activity [2] [g] | survival at 672 h [3] [%] | Activity [4] [g] | Activity [5] [g] | Activity [6] [g] |
| --- | --- | --- | --- | --- | --- | --- |
| Cc1cc2nc3c(=O)[nH]c(=O)nc-3n(CCN(CCO)CCO)c2cc1C | -10 | 35 | 40 | – | – | – |
| CCc1cc2nc3c(=O)[nH]c(=O)nc-3n(CCN(CCO)CCO)c2cc1CC.Cl | – | -9 | 25 | 7 | 33 | -26 |
| Cc1cc2nc3c(=O)[nH]c(=O)nc-3n(CCN(CCO)CCO)c2cc1Cl.Cl | 0 | – | 100 | – | – | – |
| Cc1cc2c(cc1Cl)nc1c(=O)[nH]c(=O)nc-1n2CCN(CCO)CCO.Cl | -8 | – | 100 | – | – | – |
| O=c1nc2n(CCN(CCO)CCO)c3cc(Cl)c(Cl)cc3nc-2c(=O)[nH]1 | 6 | – | 100 | – | – | – |
| CCc1cc2nc3c(=O)[nH]c(=O)nc-3n(CCN(CCO)CCO)c2cc1C.Cl | -25 | -2 | 60 | 21 | – | – |
